From ChEMBL document CHEMBL1795292, “Discovery of molecules for the treatment of neuropathic pain: synthesis, antiallodynic and antihyperalgesic activities of 5-(4-nitrophenyl)furoic-2-acid hydrazones” (2011)
Activity calls are given as the source filed them. No cut-off for these calls is given here.

Tests used:
Rattus norvegicus [1] = assay: Antiallodynic activity in Wistar albino rat chronic constriction injury-induced neuropathic pain model assessed as reversal of spontaneous pain response measured as withdrawal duration at 100 mg/kg, ip; format: functional; details: route intraperitoneal
Rattus norvegicus [2] = assay: Antiallodynic activity in Wistar albino rat chronic constriction injury-induced neuropathic pain model assessed as attenuation of cold allodynia measured as paw withdrawal duration at 100 mg/kg, ip; format: functional; details: route intraperitoneal
Rattus norvegicus [3] = assay: Antihyperalgesic activity in Wistar albino rat chronic constriction injury-induced neuropathic pain model assessed as attenuation of mechanical pinkprick-induced hyperalgesia up to 2.5 at 100 mg/kg, ip; format: functional, organism-based; parameters: dose 100 mg/kg
Rattus norvegicus [4] = assay: Antiallodynic activity in Wistar albino rat chronic constriction injury-induced neuropathic pain model assessed as reversal of spontaneous pain response after 1 hrs at 100 mg/kg, ip; format: functional, organism-based; parameters: dose 100 mg/kg
Rattus norvegicus [5] = assay: Antiallodynic activity in Wistar albino rat chronic constriction injury-induced neuropathic pain model assessed as attenuation of mechanical allodynia at 100 mg/kg, ip; format: functional, organism-based; parameters: dose 100 mg/kg
Rattus norvegicus [6] = assay: Antiallodynic activity in Wistar albino rat chronic constriction injury-induced neuropathic pain model assessed as attenuation of cold allodynia at 100 mg/kg, ip relative to carbamazepine and lamotrigine; format: functional; details: route intraperitoneal
Rattus norvegicus [7] = assay: Antiallodynic activity in Wistar albino rat chronic constriction injury-induced neuropathic pain model assessed as reversal of spontaneous pain response at 100 mg/kg, ip; format: functional, organism-based; parameters: dose 100 mg/kg
Rattus norvegicus [8] = assay: Antiallodynic activity in Wistar albino rat chronic constriction injury-induced neuropathic pain model assessed as attenuation of cold allodynia at 100 mg/kg, ip; format: functional, organism-based; parameters: dose 100 mg/kg
Rattus norvegicus [9] = assay: Antihyperalgesic activity in Wistar albino rat chronic constriction injury-induced neuropathic pain model assessed as attenuation of mechanical pinkprick-induced hyperalgesia after 1.5 at 100 mg/kg, ip; format: functional, organism-based; parameters: dose 100 mg/kg
Rattus norvegicus [10] = assay: Antiallodynic activity in Wistar albino rat chronic constriction injury-induced neuropathic pain model assessed as reversal of spontaneous pain response after 0.5 hrs at 100 mg/kg, ip; format: functional, organism-based; parameters: dose 100 mg/kg
Rattus norvegicus [11] = assay: Antiallodynic activity in Wistar albino rat chronic constriction injury-induced neuropathic pain model assessed as reversal of spontaneous pain response at 100 mg/kg, ip relative to gabapentin; format: functional; details: route intraperitoneal
Rattus norvegicus [12] = assay: Antiallodynic activity in Wistar albino rat chronic constriction injury-induced neuropathic pain model assessed as attenuation of mechanical allodynia measured as paw withdrawal latency at 100 mg/kg, ip; format: functional; details: route intraperitoneal
Rattus norvegicus [13] = assay: Antiallodynic activity in Wistar albino rat chronic constriction injury-induced neuropathic pain model assessed as attenuation of cold allodynia after 1 to 2.5 hrs at 100 mg/kg, ip; format: functional, organism-based; parameters: dose 100 mg/kg
Rattus norvegicus [14] = assay: Antiallodynic activity in Wistar albino rat chronic constriction injury-induced neuropathic pain model assessed as reversal of spontaneous pain response up to 1 hr at 100 mg/kg, ip; format: functional, organism-based; parameters: dose 100 mg/kg
Rattus norvegicus [15] = assay: Antiallodynic activity in Wistar albino rat chronic constriction injury-induced neuropathic pain model assessed as attenuation of cold allodynia after 0.5 to 1 hr at 100 mg/kg, ip; format: functional, organism-based; parameters: dose 100 mg/kg
Rattus norvegicus [16] = assay: Antiallodynic activity in Wistar albino rat chronic constriction injury-induced neuropathic pain model assessed as attenuation of mechanical allodynia after 1.5 hrs at 100 mg/kg, ip; format: functional, organism-based; parameters: dose 100 mg/kg
Rattus norvegicus [17] = assay: Antiallodynic activity in Wistar albino rat chronic constriction injury-induced neuropathic pain model assessed as attenuation of mechanical allodynia after 0.5 hrs at 100 mg/kg, ip; format: functional, organism-based; parameters: dose 100 mg/kg
Rattus norvegicus [18] = assay: Antihyperalgesic activity in Wistar albino rat chronic constriction injury-induced neuropathic pain model assessed as attenuation of mechanical pinkprick-induced hyperalgesia after 0.5 to 1.5 at 100 mg/kg, ip; format: functional, organism-based; parameters: dose 100 mg/kg
Rattus norvegicus [19] = assay: Antiallodynic activity in Wistar albino rat chronic constriction injury-induced neuropathic pain model assessed as reversal of spontaneous pain response up to 2 hrs at 100 mg/kg, ip; format: functional, organism-based; parameters: dose 100 mg/kg
Rattus norvegicus [20] = assay: Antihyperalgesic activity in Wistar albino rat chronic constriction injury-induced neuropathic pain model assessed as attenuation of mechanical pinkprick-induced hyperalgesia after 0.5 to 1 at 100 mg/kg, ip; format: functional, organism-based; parameters: dose 100 mg/kg

With `O=C(N/N=C/c1ccc(Br)cc1)c1ccc(-c2ccc([N+](=O)[O-])cc2)o1` the Time (Rattus norvegicus [1]) was 2.5 h, the Time (Rattus norvegicus [2]) was 2.5 h and the Activity (Rattus norvegicus [3]) was “Active”. For the same compound, the Activity (Rattus norvegicus [4]) was “Active”, the Activity (Rattus norvegicus [5]) was “inactive” and the “fold change (FC)” value (Rattus norvegicus [6]) was 6.

In the case of `Cc1ccc(/C=N/NC(=O)c2ccc(-c3ccc([N+](=O)[O-])cc3)o2)cc1`, the Activity (Rattus norvegicus [7]) is reported as “inactive”, the Activity (Rattus norvegicus [5]) is reported as “inactive” and the Activity (Rattus norvegicus [8]) is reported as “inactive”. For the same compound, the Activity (Rattus norvegicus [9]) was “Active”.

In the case of `COc1ccc(/C=N/NC(=O)c2ccc(-c3ccc([N+](=O)[O-])cc3)o2)cc1`, the Time (Rattus norvegicus [1]) is reported as 2.5 h, the Time (Rattus norvegicus [2]) is reported as 2.5 h and the Activity (Rattus norvegicus [3]) is reported as “Active”. The Activity (Rattus norvegicus [10]) was “Active”, the “fold change (FC)” value (Rattus norvegicus [11]) was 5 and the Activity (Rattus norvegicus [5]) was “inactive”.

`NCC1(CC(=O)O)CCCCC1` [GABAPENTIN] was tested, and the Time (Rattus norvegicus [1]) was 1 h, the Time (Rattus norvegicus [12]) was 2.5 h and the Activity (Rattus norvegicus [13]) was “Active”.

`NC(=O)N1c2ccccc2C=Cc2ccccc21` [CARBAMAZEPINE] was tested, and the Time (Rattus norvegicus [12]) was 2.5 h, the Activity (Rattus norvegicus [14]) was “Active” and the Activity (Rattus norvegicus [15]) was “Active”.

`O=C(N/N=C/c1ccc([N+](=O)[O-])o1)c1ccc(-c2ccc([N+](=O)[O-])cc2)o1` gave a Time (Rattus norvegicus [1]) of 2.5 h, a Time (Rattus norvegicus [12]) of 2.5 h and a Time (Rattus norvegicus [2]) of 2.5 h. For the same compound, the Activity (Rattus norvegicus [10]) was “Active” and the Activity (Rattus norvegicus [9]) was “Active”.

With `C/C(=N\NC(=O)c1ccc(-c2ccc([N+](=O)[O-])cc2)o1)c1ccc(F)cc1` the Activity (Rattus norvegicus [7]) was “inactive”, the Activity (Rattus norvegicus [5]) was “inactive” and the Activity (Rattus norvegicus [8]) was “inactive”. For the same compound, the Activity (Rattus norvegicus [9]) was “inactive”.

With `COc1cc(/C=N/NC(=O)c2ccc(-c3ccc([N+](=O)[O-])cc3)o2)ccc1O` the Time (Rattus norvegicus [1]) was 2.5 h, the Time (Rattus norvegicus [12]) was 2.5 h and the Activity (Rattus norvegicus [10]) was “Active”. For the same compound, the Activity (Rattus norvegicus [16]) was “Active”, the Activity (Rattus norvegicus [8]) was “inactive” and the Activity (Rattus norvegicus [9]) was “inactive”.

`C/C(=N\NC(=O)c1ccc(-c2ccc([N+](=O)[O-])cc2)o1)c1ccc(C)cc1` was tested, and the Time (Rattus norvegicus [12]) was 2.5 h, the Activity (Rattus norvegicus [17]) was “Active” and the Activity (Rattus norvegicus [7]) was “inactive”. The Activity (Rattus norvegicus [8]) was “inactive” and the Activity (Rattus norvegicus [18]) was “Active”.

`O=C(N/N=C/c1ccccc1)c1ccc(-c2ccc([N+](=O)[O-])cc2)o1` was tested, and the Time (Rattus norvegicus [1]) was 2.5 h, the Time (Rattus norvegicus [12]) was 2 h and the Time (Rattus norvegicus [2]) was 2.5 h. The Activity (Rattus norvegicus [10]) was “Active” and the Activity (Rattus norvegicus [9]) was “inactive”.

For `C/C(=N\NC(=O)c1ccc(-c2ccc([N+](=O)[O-])cc2)o1)c1ccc(Br)cc1`, the Time (Rattus norvegicus [12]) was 2.5 h, the Time (Rattus norvegicus [2]) was 2.5 h and the Activity (Rattus norvegicus [17]) was “Active”. For the same compound, the Activity (Rattus norvegicus [7]) was “inactive” and the Activity (Rattus norvegicus [9]) was “inactive”.

In the case of `Nc1nnc(-c2cccc(Cl)c2Cl)c(N)n1`, the Activity (Rattus norvegicus [19]) is reported as “Active” and the Activity (Rattus norvegicus [17]) is reported as “Active”.

In the case of `C/C(=N\NC(=O)c1ccc(-c2ccc([N+](=O)[O-])cc2)o1)c1ccccc1`, the Time (Rattus norvegicus [1]) is reported as 2.5 h, the Time (Rattus norvegicus [12]) is reported as 2.5 h and the Time (Rattus norvegicus [2]) is reported as 2.5 h. For the same compound, the Activity (Rattus norvegicus [10]) was “Active”, the Activity (Rattus norvegicus [17]) was “Active” and the Activity (Rattus norvegicus [20]) was “Active”.
